Source: ChEMBL document CHEMBL3232891, “Medicinal attributes of pyrazolo[3,4-d]pyrimidines: a review” (Bioorg Med Chem, 2013)
Converted amounts (≈) assume the structure as drawn.

Assays:
Daoy = assay: Cytotoxicity against human DaOY cells after 48 hrs by MTS assay; type: functional, cell-based
Enterococcus raffinosus = assay: Antibacterial activity against Enterococcus raffinosus; type: functional
Staphylococcus aureus = assay: Antibacterial activity against Staphylococcus aureus; type: functional
NCI-H226 = assay: Growth inhibition of human NCI-H226 cells; type: functional
[1] = Growth inhibition of human NPC-TW01 cells; type: functional
Jurkat = assay: Growth inhibition of human Jurkat cells; type: functional
[2] = tested on: Mycobacterium tuberculosis; assay: Antitubercular activity against Mycobacterium tuberculosis assessed as growth inhibition; type: functional
[3] = Cytotoxicity against human Saos2 cells after 48 hrs by MTT assay; type: functional, cell-based; conditions: SAOS-2, 48 h
[4] = Cytotoxicity against human Saos2 cells assessed as inhibition of cell viability at 25 uM after 48 hrs by MTT assay relative to control; type: functional; conditions: SAOS-2, 48 h
HL-60 = assay: Cytotoxicity against human HL60 cells by MTT assay; type: functional, cell-based

Fc1cccc(CNc2ncnc3c2cnn3CC(Cl)c2ccc(Br)cc2)c1 (configuration not stated)
IC50 (Daoy): 3.5 µM

Nc1n[nH]c2nc(-c3ccccc3)nc(-c3ccc(Br)cc3)c12
MIC (Enterococcus raffinosus): 12.3 µM (≈ 4.5 µg/mL)
MIC (Staphylococcus aureus): 3.8 µM (≈ 1.39 µg/mL)

Clc1ccc(-c2nn(-c3ccccc3)c3ncncc23)cc1
GI50 (NCI-H226): 18 µM
GI50 [1]: 23 µM
GI50 (Jurkat): 36 µM

Cc1ccc(-c2nn(-c3ccc4ccccc4n3)c3ncncc23)cc1
GI50 (NCI-H226): 29 µM
GI50 [1]: 30 µM
GI50 (Jurkat): 54 µM

Clc1ccc(-c2nn(-c3ccc4ccccc4n3)c3ncncc23)cc1
GI50 (NCI-H226): 39 µM
GI50 [1]: 35 µM
GI50 (Jurkat): 69 µM

COc1ccc(-c2nn(-c3ccc4ccccc4n3)c3ncncc23)cc1
GI50 (NCI-H226): 37 µM
GI50 [1]: 36 µM
GI50 (Jurkat): > 100 µM

COc1ccc(-c2nc(-c3ccccc3)nc3[nH]nc(N)c23)cc1
MIC (Enterococcus raffinosus): 14.2 µM (≈ 4.51 µg/mL)
MIC (Staphylococcus aureus): 4.2 µM (≈ 1.33 µg/mL)

Nc1n[nH]c2nc(-c3ccccc3)nc(-c3ccc(Cl)cc3)c12
MIC (Enterococcus raffinosus): > 300 µM
MIC (Staphylococcus aureus): 190 µM (≈ 61.2 µg/mL)

Nc1ccc(-c2nc(-c3ccccc3)nc3[nH]nc(N)c23)cc1
MIC (Enterococcus raffinosus): 82.8 µM (≈ 25 µg/mL)
MIC (Staphylococcus aureus): 34.5 µM (≈ 10.4 µg/mL)

C#CCn1ncc2c(SCc3ccccc3)ncnc21
inhibition (INH) [2]: >90%
MIC ([2]; Mycobacterium tuberculosis): 12.5 µg/mL (≈ 44.6 µM)

CSc1nc(Nc2cccc(Cl)c2)c2cnn(CC(Cl)c3ccccc3)c2n1 (configuration not stated)
IC50 [3]: 11.6 µM
inhibition at 25 µM [4]: 93.3%

Fc1ccc(CNc2ncnc3c2cnn3CC(Cl)c2ccc(Cl)cc2)cc1 (configuration not stated)
IC50 (Daoy): 1.72 µM

CC(C)(C)n1nc(-c2ccc(Cl)cc2)c2c(N)ncnc21
IC50 [3]: 8.07 µM
inhibition at 25 µM [4]: 85.3%

CCCCNc1ncnc2c1cnn2CC(Cl)c1ccccc1 (configuration not stated)
IC50 [3]: 14.6 µM
inhibition at 25 µM [4]: 71.1%
IC50 (Daoy): 6.24 µM

COc1cccc2c1C(=O)c1c(O)c3c(c(O)c1C2=O)C[C@@](O)(C(=O)CO)C[C@@H]3O[C@H]1C[C@H](N)[C@H](O)[C@H](C)O1 [DOXORUBICIN]
IC50 (HL-60): 0.55 µM
